ChEMBL document CHEMBL4346757, “Synthesis and biological evaluation of 7-methoxy-1-(3,4,5-trimethoxyphenyl)-4,5-dihydro-2H-benzo[e]indazoles as new colchicine site inhibitors” (Bioorg Med Chem Lett, 2019)

Columns and labels:
COLO 205 [1] = assay: Antiproliferative activity against human COLO205 cells assessed as reduction in cell viability by MTT assay; assay type: functional, cell-based
HCT-116 [2] = assay: Antiproliferative activity against human HCT116 cells assessed as reduction in cell viability by MTT assay; assay type: functional, cell-based
NCI-H322M [3] = assay: Growth inhibition of human NCI-H322M cells assessed as cell growth at 0.01 uM after 48 hrs by SRB assay relative to control; assay type: functional; conditions: read-out: Activity
HCC 2998 = assay: Growth inhibition of human HCC2998 cells assessed as cell growth at 0.01 uM after 48 hrs by SRB assay relative to control; assay type: functional; conditions: HCC 2998, 48 h, read-out: Activity
OVCAR-4 [4] = assay: Growth inhibition of human OVCAR4 cells assessed as cell growth at 0.01 uM after 48 hrs by SRB assay relative to control; assay type: functional; conditions: OVCAR-4, 48 h, read-out: Activity
MDA-MB-468 = assay: Growth inhibition of human MDA-MB-468 cells assessed as cell growth at 0.01 uM after 48 hrs by SRB assay relative to control; assay type: functional; conditions: MDA-MB-468, 48 h, read-out: Activity
SR [5] = assay: Growth inhibition of human SR cells assessed as cell growth at 0.1 uM after 48 hrs by SRB assay relative to control; assay type: functional; conditions: read-out: Activity
Malme-3M [6] = assay: Growth inhibition of human MALME-3M cells assessed as cell growth at 0.1 uM after 48 hrs by SRB assay relative to control; assay type: functional; conditions: read-out: Activity
SK-MEL-28 = assay: Growth inhibition of human SK-MEL-28 cells assessed as cell growth at 0.1 uM after 48 hrs by SRB assay relative to control; assay type: functional; conditions: SK-MEL-28, 48 h, read-out: Activity
SK-MEL-5 = assay: Growth inhibition of human SK-MEL-5 cells assessed as cell growth at 0.1 uM after 48 hrs by SRB assay relative to control; assay type: functional; conditions: SK-MEL-5, 48 h, read-out: Activity
BT-549 = assay: Growth inhibition of human BT549 cells assessed as cell growth at 0.1 uM after 48 hrs by SRB assay relative to control; assay type: functional; conditions: BT-549, 48 h, read-out: Activity
A549 = assay: Growth inhibition of human A549/ATCC cells assessed as cell growth at 1 uM after 48 hrs by SRB assay relative to control; assay type: functional; conditions: A549, 48 h, read-out: Activity
HCT-116 [7] = assay: Growth inhibition of human HCT116 cells assessed as cell growth at 1 uM after 48 hrs by SRB assay relative to control; assay type: functional; conditions: HCT-116, 48 h, read-out: Activity
KM12 [8] = assay: Growth inhibition of human KM12 cells assessed as cell growth at 1 uM after 48 hrs by SRB assay relative to control; assay type: functional; conditions: KM12, 48 h, read-out: Activity
SNB-75 = assay: Growth inhibition of human SNB75 cells assessed as cell growth at 1 uM after 48 hrs by SRB assay relative to control; assay type: functional; conditions: SNB-75, 48 h, read-out: Activity
MDA-MB-435 = assay: Growth inhibition of human MDA-MB-435 cells assessed as cell growth at 1 uM after 48 hrs by SRB assay relative to control; assay type: functional; conditions: MDA-MB-435, 48 h, read-out: Activity
UACC-257 = assay: Growth inhibition of human UACC257 cells assessed as cell growth at 1 uM after 48 hrs by SRB assay relative to control; assay type: functional; conditions: UACC-257, 48 h, read-out: Activity
OVCAR-8 = assay: Growth inhibition of human OVCAR8 cells assessed as cell growth at 1 uM after 48 hrs by SRB assay relative to control; assay type: functional; conditions: OVCAR-8, 48 h, read-out: Activity
SR [9] = assay: Growth inhibition of human SR cells assessed as cell growth at 10 uM after 48 hrs by SRB assay relative to control; assay type: functional; conditions: read-out: Activity
NCI-H23 = assay: Growth inhibition of human NCI-H23 cells assessed as cell growth at 10 uM after 48 hrs by SRB assay relative to control; assay type: functional; conditions: NCI-H23, 48 h, read-out: Activity
NCI-H522 = assay: Growth inhibition of human NCI-H522 cells assessed as cell growth at 10 uM after 48 hrs by SRB assay relative to control; assay type: functional; conditions: NCI-H522, 48 h, read-out: Activity
KM12 [10] = assay: Growth inhibition of human KM12 cells assessed as cell growth at 10 uM after 48 hrs by SRB assay relative to control; assay type: functional; conditions: KM12, 48 h, read-out: Activity
LOX IMVI = assay: Growth inhibition of human LOXIMVI cells assessed as cell growth at 10 uM after 48 hrs by SRB assay relative to control; assay type: functional; conditions: read-out: Activity
SK-MEL-2 = assay: Growth inhibition of human SK-MEL-2 cells assessed as cell growth at 10 uM after 48 hrs by SRB assay relative to control; assay type: functional; conditions: SK-MEL-2, 48 h, read-out: Activity
UO-31 = assay: Growth inhibition of human UO31 cells assessed as cell growth at 10 uM after 48 hrs by SRB assay relative to control; assay type: functional; conditions: UO-31, 48 h, read-out: Activity
NCI-H322M [11] = assay: Growth inhibition of human NCI-H322M cells assessed as cell growth at 100 uM after 48 hrs by SRB assay relative to control; assay type: functional; conditions: read-out: Activity
NCI-H460 = assay: Growth inhibition of human NCI-H460 cells assessed as cell growth at 100 uM after 48 hrs by SRB assay relative to control; assay type: functional; conditions: NCI-H460, 48 h, read-out: Activity
Malme-3M [12] = assay: Growth inhibition of human MALME-3M cells assessed as cell growth at 100 uM after 48 hrs by SRB assay relative to control; assay type: functional; conditions: read-out: Activity
UACC-62 [13] = assay: Growth inhibition of human UACC62 cells assessed as cell growth at 100 uM after 48 hrs by SRB assay relative to control; assay type: functional; conditions: UACC-62, 48 h, read-out: Activity
MDA-MB-231 = assay: Growth inhibition of human MDA-MB-231/ATCC cells assessed as cell growth at 100 uM after 48 hrs by SRB assay relative to control; assay type: functional; conditions: MDA-MB-231, 48 h, read-out: Activity
COLO 205 [14] = assay: Cytotoxicity against human COLO205 cells assessed as growth inhibition after 48 hrs by SRB assay; assay type: functional; conditions: COLO 205, 48 h
UACC-62 [15] = assay: Cytotoxicity against human UACC62 cells assessed as growth inhibition after 48 hrs by SRB assay; assay type: functional; conditions: UACC-62, 48 h
OVCAR-4 [16] = assay: Cytotoxicity against human OVCAR4 cells assessed as growth inhibition after 48 hrs by SRB assay; assay type: functional; conditions: OVCAR-4, 48 h
[17] = read-out: LC50 (the source's name)
[18] = read-out: pLC50 (the source's name) (converted)

`COc1ccc2c(c1)CCc1n[nH]c(-c3cc(OC)c(OC)c(OC)c3)c1-2` gave an IC50 (COLO 205 [1]) of 7 nM, an IC50 (HCT-116 [2]) of 1 nM and a growth at 0.01 µM (NCI-H322M [3]) of 47%. It also gave a growth at 0.01 µM (HCC 2998) of 15%, a growth at 0.01 µM (OVCAR-4 [4]) of 41% and a growth at 0.01 µM (MDA-MB-468) of -7%. For the same molecule, the growth at 0.1 µM (SR [5]) was 18%, the growth at 0.1 µM (Malme-3M [6]) was 48% and the growth at 0.1 µM (SK-MEL-28) was 60%. The growth at 0.1 µM (SK-MEL-5) was -26%, the growth at 0.1 µM (BT-549) was 1% and the growth at 1 µM (A549) was 11%. For the same molecule, the growth at 1 µM (HCT-116 [7]) was 1%, the growth at 1 µM (KM12 [8]) was 5% and the growth at 1 µM (SNB-75) was 39%. The growth at 1 µM (MDA-MB-435) was -35%, the growth at 1 µM (UACC-257) was 62% and the growth at 1 µM (OVCAR-8) was 10%. The growth at 10 µM (SR [9]) was 9%, the growth at 10 µM (NCI-H23) was -6% and the growth at 10 µM (NCI-H522) was -17%. The growth at 10 µM (KM12 [10]) was 6%, the growth at 10 µM (LOX IMVI) was 7% and the growth at 10 µM (SK-MEL-2) was 38%. For the same molecule, the growth at 10 µM (UO-31) was 13%, the growth at 100 µM (NCI-H322M [11]) was -21% and the growth at 100 µM (NCI-H460) was -59%. The growth at 100 µM (Malme-3M [12]) was -36%, the growth at 100 µM (UACC-62 [13]) was -76% and the growth at 100 µM (MDA-MB-231) was -18%. For the same molecule, the GI50 (COLO 205 [14]; read-out: GI50) was less than 10 nM, the CC50 (COLO 205 [14]; [17]) was 249 nM and the TGI (COLO 205 [14]; read-out: TGI) was less than 10 nM. It also gave a GI50 (COLO 205 [14]; read-out: pGI50 (converted)) of less than 10 nM, a CC50 (COLO 205 [14]; [18]) of 251 nM and a TGI (COLO 205 [14]; read-out: pTGI) of less than 10 nM. The GI50 (UACC-62 [15]; read-out: GI50) was less than 10 nM, the CC50 (UACC-62 [15]; [17]) was 50 µM and the TGI (UACC-62 [15]; read-out: TGI) was 13 µM. The GI50 (UACC-62 [15]; read-out: pGI50 (converted)) was less than 10 nM, the CC50 (UACC-62 [15]; [18]) was 50.1 µM and the TGI (UACC-62 [15]; read-out: pTGI (converted)) was 12.9 µM. For the same molecule, the GI50 (OVCAR-4 [16]; read-out: GI50) was less than 10 nM, the LC50 (OVCAR-4 [16]; read-out: LC50) was greater than 100 µM and the TGI (OVCAR-4 [16]; read-out: TGI) was 56.5 µM. It also gave a GI50 (OVCAR-4 [16]; read-out: pGI50 (converted)) of less than 10 nM, an LC50 (OVCAR-4 [16]; read-out: pLC50 (converted)) greater than 100 µM and a TGI (OVCAR-4 [16]; read-out: pTGI (converted)) of 56.2 µM.
